Test results taken from patent US8168642B2, “Dihydropyrimidine compounds and their uses in preparation of medicaments for treating and preventing antiviral diseases” (Beijing Molecule Science and Technology Co., Ltd., priority 2006, dated 2012).

Tests used:
HBV DNA = assay: Antiviral activity: inhibition of HBV DNA in supernatant of HepG 2.2.15 cells (dot blot hybridization); type: cell-based; conditions: Hepatitis B virus, HepG2.2.15, 192 h, 8 days incubation, HB-specific DNA in supernatant, read-out: IC50 (inhibitory effect on HBV DNA)
Description: The antiviral effect of the compound of the present invention is determined according to the methods described by Sells, et al (M. A. Sells, M. L. Chen, G. Proc. Natl. Acad. Sci. 1987, 84, 1005-1009) and Korba, et al (B. E. Korba, J. L. Gerin Antiviral Research 1992, 19, 55-70).
(§1) The antiviral test was carried out in a 96-cell microtiter plate. The first column of the plate only contained a culture medium and HepG 2.2.15 cells, as a blank control.
(§2) First, a stock solution ([…]) of a test compound was dissolved in DMSO, and further diluted with a culture medium for growth of HepG 2.2.15 cells. Usually, the compound of the present invention was transferred by suction at a test concentration of 100 μg/ml (the first test concentration) to each cell of the second column of the microtiter plate, and then diluted with the culture medium for growth plus 2% fetal bovine serum (25 μL), by 2 times once, up to 2^10 times at the maximum.
(§3) Then, 225 μL of a suspension of HepG 2.2.15 cells in the culture medium for growth plus 2% fetal bovine serum (5×10^4 cells/ml) was added to each cell of the 96-cell microtiter plate.
(§4) The test mixture was incubated under the conditions of 37° C., 5% CO2 for 4 days. Then, the supernatant was removed by suction, and to each cell 225 μL of a new-prepared culture medium for growth was added. Again, the compound of the present invention was added with a solution of 25 μL. The obtained mixture was further incubated for 4 days.
Thereafter, the supernatant was collected, and sucked in vacuum to a 96-cell dot blot chamber covered by nylon film (used in accordance with the instructions for use provided by the manufacturer).
Determination of Antiviral Activity
After the supernatant was transferred onto the nylon film of the dot blot device (see the contents hereinabove), the supernatant of HepG 2.2.15 cells was denaturated (1.5 M NaCl/0.5 M NaOH), neutralized (3 M NaCl/0.5 M Tris. HCl, pH 7.5) and washed (2×SSC). Then, the filter film was kept at 120° C. for 2-4 hours, whereby DNA was baked on the filter film.
Usually, viral DNA of HepG 2.2.15 cells treated on the nylon film was detected by using a non-radioactive digoxigenin labeled HB-specific DNA probe. Wherein, each time the probe was labeled with digoxigenin, purified and hybridized according to the directions for use given by the manufacturer.
Briefly, pre-hybridization and hybridization were conducted with 5×SSC, 1× blocking agent, 0.1% N-lauroyl sarcosine, 0.02% SDS and 100 μg sperm DNA of black carp. After pre-hybridization at 60° C. for 30 min, a specific hybridization (at 60° C. for 14 hr) was conducted with 20-40 ng/ml digoxigenin labeled denaturalized HBV specific DNA. Then, the film was washed, followed by HBV DNA detection with digoxigenin antibody.
The immunology detection of digoxigenin labeled DNA was conducted according to the directions for use given by the manufacturer.
Briefly speaking, the film was washed and pre-hybridized with a blocking agent (in accordance with the directions for use given by the manufacturer), and then hybridized with an anti-DIG antibody that had been previously coupled onto an alkaline phosphatase for 30 min. After washing, an alkaline phosphatase substrate CSPD was added, and cultured together with the filter for 5 min, and then wrapped in a plastic film, followed by further culturing at 37° C. for 15 min. The filter was exposed to X-ray, and the chemical luminous signal (culturing for 10 min to 2 hr according to the signal strength) of HB-specific DNA on the film was detected, whereby a half inhibitory concentration (IC50) was calculated.
The half inhibitory concentration (IC50) refers to the concentration of the compound of the present invention which reduces the HB-specific band by 50% as compared with the untreated sample.

HepG 2.2.15 cells = assay: Cytotoxicity in HepG 2.2.15 cells (cell morphology under microscope after 8 days, Reed&Muench); type: cell-based; conditions: pathological change of cells after 8 days
Description: as §1, §2, §3, §4
Prior to collection of the supernatant for determination of the antiviral effect, the change in cytotoxicity of HepG 2.2.15 cells was investigated by using optical microscopic technique or biochemical detection method (e.g., Alamar Blue staining or Trypan Blue staining).
Determination of Cytotoxicity
The substance-induced change in cytotoxicity in HepG 2.2.15 cells or in inhibition of the cells could be determined by using, e.g., optical microscopic technique, and expressed by the change of cell morphology. Such substance-induced changes, e.g., cell lysis, cavity formation or change in cell morphology, in HepG 2.2.15 cells were apparent as compared to the untreated cells.
Taking the observed pathological change of cells as index, the pathological change of cells was observed under microscope after 8 days, a complete destroy being indicated as 4; 75% being indicated as 3; 50% being indicated as 2; 25% being indicated as 1; and no pathological change being indicated as 0. The average extents of pathological change of cells and the inhibition percentages at various concentrations were calculated. According to Reed&Muench method, a half toxic concentration (TC50) and a maximum non-toxic concentration (TC0) were calculated.
TC50 refers to the concentration of the compound of the present invention when 50% of cells have a similar morphology to the corresponding cells as a control.

COC(=O)C1=C(C)NC(c2sc(C)nc2C)=NC1c1ccc(F)cc1Cl (stereo not shown) [Example 39, methyl 2-(2,4-dimethylthiazol-5-yl)-4-(2-chloro-4-fluorophenyl)-6-methyl-1,4-dihydro-pyrimidin-5-carboxylate]
melting point: 116 to 118 °C
IC50 (HBV DNA): 3200 nM
TD50 (HepG 2.2.15 cells): 165.90 µM

CCOC(=O)C1=C(C)NC(c2cncs2)=NC1c1ccc(F)cc1Cl (stereo not shown) [Example 42, ethyl 2-(thiazol-5-yl)-4-(2-chloro-4-fluorophenyl)-6-methyl-1,4-dihydro-pyrimidin-5-carboxylate]
melting point: 121 to 125 °C
IC50 (HBV DNA): 3610 nM
TD50 (HepG 2.2.15 cells): >32.90 µM

CCOC(=O)C1=C(C)NC(c2sc(C)nc2C)=NC1c1ccc(F)cc1Cl (stereo not shown) [Example 40, ethyl 2-(2,4-dimethylthiazol-5-yl)-4-(2-chloro-4-fluorophenyl)-6-methyl-1,4-dihydro-pyrimidin-5-carboxylate]
melting point: 117 to 119 °C
IC50 (HBV DNA): 2590 nM
TD50 (HepG 2.2.15 cells): 157.42 µM

CCOC(=O)C1=C(C)NC(c2nccn2C)=NC1c1ccc(F)cc1 (stereo not shown) [Example 53, ethyl 2-(N-methyl-1H-imidazol-2-yl)-4-(4-fluorophenyl)-6-methyl-1,4-dihydro-pyrimidin-5-carboxylate]
melting point: 134 to 136 °C
IC50 (HBV DNA): 10200 nM
TD50 (HepG 2.2.15 cells): 281.14 µM

CCOC(=O)C1=C(C)NC(c2cnc(N)s2)=NC1c1ccc(F)cc1Cl (stereo not shown) [Example 44, ethyl 2-(2-aminothiazol-5-yl)-4-(2-chloro-4-fluorophenyl)-6-methyl-1,4-dihydro-pyrimidin-5-carboxylate]
melting point: 132 to 135 °C
IC50 (HBV DNA): 2690 nM
TD50 (HepG 2.2.15 cells): 22.56 µM

COC(=O)C1=C(C)NC(c2csc(Cl)n2)=NC1c1ccc(F)cc1Cl (stereo not shown) [Example 34, methyl 2-(2-chlorothiazol-4-yl)-4-(2-chloro-4-fluorophenyl)-6-methyl-1,4-dihydro-pyrimidin-5-carboxylate]
melting point: 160 to 162 °C
IC50 (HBV DNA): 2080 nM
TD50 (HepG 2.2.15 cells): 12.35 µM

CCOC(=O)C1=C(C)NC(c2scnc2C)=NC1c1ccc(F)cc1Cl (stereo not shown) [Example 38, ethyl 2-(4-methylthiazol-5-yl)-4-(2-chloro-4-fluorophenyl)-6-methyl-1,4-dihydro-pyrimidin-5-carboxylate]
melting point: 134 to 139 °C
IC50 (HBV DNA): 2220 nM
TD50 (HepG 2.2.15 cells): 54.33 µM

COC(=O)C1=C(C)NC(c2c(F)cc(F)cc2F)=NC1c1ccc(F)cc1Cl (stereo not shown) [Example 59, methyl 2-(2,4,6-trifluorophenyl)-4-(2-chloro-4-fluorophenyl)-6-methyl-1,4-dihydro-pyrimidin-5-carboxylate]
melting point: 112 to 114 °C
IC50 (HBV DNA): 3390 nM
TD50 (HepG 2.2.15 cells): >30.30 µM

CCOC(=O)C1=C(C)NC(c2c(F)cc(F)cc2F)=NC1c1ccc(F)cc1Cl (stereo not shown) [Example 58, ethyl 2-(2,4,6-trifluorophenyl)-4-(2-chloro-4-fluorophenyl)-6-methyl-1,4-dihydro-pyrimidin-5-carboxylate]
melting point: 184 to 186 °C
IC50 (HBV DNA): 2600 nM
TD50 (HepG 2.2.15 cells): 32.50 µM

CCOC(=O)C1=C(C)NC(c2c(F)cccc2F)=NC1c1ccc(F)cc1Cl (stereo not shown) [Example 56, ethyl 2-(2,6-difluorophenyl)-4-(2-chloro-4-fluorophenyl)-6-methyl-1,4-dihydro-pyrimidin-5-carboxylate]
melting point: 163 to 165 °C
IC50 (HBV DNA): 2030 nM
TD50 (HepG 2.2.15 cells): 117.50 µM

CCOC(=O)C1=C(C)NC(c2cscn2)=NC1c1ccc(F)cc1Cl (stereo not shown) [Example 1, ethyl 2-(thiazol-4-yl)-4-(2-chloro-4-fluorophenyl)-6-methyl-1,4-dihydro-pyrimidin-5-carboxylate]
melting point: 140 to 142 °C
IC50 (HBV DNA): 3350 nM
TD50 (HepG 2.2.15 cells): 50.59 µM

CCOC(=O)C1=C(C)NC(c2c(F)cc(F)cc2F)=N[C@H]1c1ccc(F)cc1Cl [Example 62, ethyl 4-R-(2-chloro-4-fluorophenyl)-2-(2,4,6-trifluorophenyl)-6-methyl-1,4-dihydro-pyrimidin-5-carboxylate]
IC50 (HBV DNA): 2010 nM
TD50 (HepG 2.2.15 cells): 117.23 µM

CCOC(=O)C1=C(C)NC(c2cnc(NC(C)=O)s2)=NC1c1ccc(F)cc1Cl (stereo not shown) [Example 43, ethyl 2-(2-acetylaminothiazol-5-yl)-4-(2-chloro-4-fluorophenyl)-6-methyl-1,4-dihydro-pyrimidin-5-carboxylate]
melting point: > 250 °C
IC50 (HBV DNA): 2290 nM
TD50 (HepG 2.2.15 cells): 76.43 µM

COC(=O)C1=C(C)NC(c2csc(C)n2)=NC1c1ccc(F)cc1Cl (stereo not shown) [Example 29, methyl 2-(2-methylthiazol-4-yl)-4-(2-chloro-4-fluorophenyl)-6-methyl-1,4-dihydro-pyrimidin-5-carboxylate]
IC50 (HBV DNA): 8420 nM
TD50 (HepG 2.2.15 cells): 56.34 µM

COC(=O)C1=C(C)NC(c2c(F)cccc2F)=NC1c1ccc(F)cc1Cl (stereo not shown) [Example 55, methyl 2-(2,6-difluorophenyl)-4-(2-chloro-4-fluorophenyl)-6-methyl-1,4-dihydro-pyrimidin-5-carboxylate]
melting point: 126 to 128 °C
IC50 (HBV DNA): 4010 nM
TD50 (HepG 2.2.15 cells): 60.84 µM

COC(=O)C1=C(C)NC(c2scnc2C)=NC1c1ccc(F)cc1Cl (stereo not shown) [Example 37, methyl 2-(4-methylthiazol-5-yl)-4-(2-chloro-4-fluorophenyl)-6-methyl-1,4-dihydro-pyrimidin-5-carboxylate]
melting point: 145 to 147 °C
IC50 (HBV DNA): 14600 nM
TD50 (HepG 2.2.15 cells): 101.42 µM

CCOC(=O)C1=C(C)NC(c2nccn2Cc2ccccc2)=NC1c1ccc(F)cc1 (stereo not shown) [Example 51, ethyl 2-(N-benzyl-1H-imidazol-2-yl)-4-(4-fluorophenyl)-6-methyl-1,4-dihydro-pyrimidin-5-carboxylate]
melting point: 162 to 164 °C
IC50 (HBV DNA): 6650 nM
TD50 (HepG 2.2.15 cells): 36.87 µM

CCOC(=O)C1=C(C)NC(c2csc(Cl)n2)=NC1c1ccc(F)cc1Cl (stereo not shown) [Example 33, ethyl 2-(2-chlorothiazol-4-yl)-4-(2-chloro-4-fluorophenyl)-6-methyl-1,4-dihydro-pyrimidin-5-carboxylate]
melting point: 141 to 143 °C
IC50 (HBV DNA): 870 nM
TD50 (HepG 2.2.15 cells): 7.17 µM

CCOC(=O)C1=C(C)NC(c2nccn2C)=NC1c1ccc(F)cc1Cl (stereo not shown) [Example 49, ethyl 2-(N-methyl-1H-imidazol-2-yl)-4-(2-chloro-4-fluorophenyl)-6-methyl-1,4-dihydro-pyrimidin-5-carboxylate]
melting point: 166 to 167 °C
IC50 (HBV DNA): 270 nM
TD50 (HepG 2.2.15 cells): 38.83 µM
